Results: patent publication US12458021B2, “Microbiocidal derivatives” (SYNGENTA CROP PROTECTION AG, priority 2019, dated 2025)

Experiments:
[1] = tested on: Glomerella lagenarium (Colletotrichum lagenarium); assay: Glomerella lagenarium (Colletotrichum lagenarium) / liquid culture (anthracnose); format: cell-based; settings: Colletotrichum orbiculare, PDB potato dextrose broth, 24° C., 3-4 days after application, read-out: control of Glomerella lagenarium (inhibition of growth, photometric)
Summary of the method: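 Conidia from cryogenic storage suspended in potato dextrose broth and added to DMSO compound solution in plates. Incubated at 24° C; growth inhibition read photometrically 3-4 days after application.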

[2] = tested on: Monographella nivalis (Microdochium nivale); assay: Monographella nivalis (Microdochium nivale) / liquid culture (foot rot cereals); format: cell-based; settings: PDB potato dextrose broth, 24° C., 4-5 days after application, read-out: control of Monographella nivalis (inhibition of growth, photometric)
Summary of the method: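 Cryostored M. nivalis conidia mixed into potato dextrose broth and added to 96-well plates holding test compound in DMSO. Incubated at 24° C; growth inhibition read photometrically 4-5 days after application.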

[3] = tested on: Mycosphaerella arachidis (Cercospora arachidicola); assay: Mycosphaerella arachidis (Cercospora arachidicola) / liquid culture (early leaf spot); format: cell-based; settings: PDB potato dextrose broth, 24° C., 4-5 days after application, read-out: control of Mycosphaerella arachidis (inhibition of growth, photometric)
Procedure: Example B8: Mycosphaerella arachidis (Cercospora arachidicola)/Liquid Culture (Early Leaf Spot) Conidia of the fungus from cryogenic storage are directly mixed into nutrient broth (PDB potato dextrose broth). After placing a (DMSO) solution of test compound into a microtiter plate (96-well format), the nutrient broth containing the fungal spores is added. The test plates are incubated at 24° C. and the inhibition of growth is determined photometrically 4-5 days after application. […] […]-180.

[4] = tested on: Puccinia recondita f. sp. tritici; assay: Puccinia recondita f. sp. tritici / wheat / leaf disc preventative (brown rust); format: in vivo; settings: foliar, wheat leaf segments cv. Kanzler, inoculated 1 day after application, assessed 7-9 days after application, read-out: control of Puccinia recondita f. sp. tritici, preventative (percent disease control compared to untreated)
Procedure: Example B11: Puccinia recondita f. sp. tritici/Wheat/Leaf Disc Preventative (Brown Rust) Wheat leaf segments cv. Kanzler are placed on agar in multiwell plates (24-well format) and sprayed with the formulated test compound diluted in water. The leaf disks are inoculated with a spore suspension of the fungus 1 day after application. The inoculated leaf segments are incubated at 19° C. and 75% rh under a light regime of 12 h light/12 h darkness in a climate cabinet and the activity of a compound is assessed as percent disease control compared to untreated when an appropriate level of disease damage appears in untreated check leaf segments (7-9 days after application). […] […]-190.

[5] = tested on: Magnaporthe grisea (Pyricularia oryzae); assay: whole plant or invertebrate; format: in vivo; settings: foliar, read-out: control of Magnaporthe grisea (percent disease control compared to untreated)
[6] = tested on: Mycosphaerella graminicola (Septoria tritici); assay: Mycosphaerella graminicola (Septoria tritici) / liquid culture (Septoria blotch); format: cell-based; settings: Zymoseptoria tritici, PDB potato dextrose broth, 24° C., 4-5 days after application, read-out: control of Mycosphaerella graminicola (inhibition of growth, photometric)
Summary of the method: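 Conidia from cryogenic storage were mixed into potato dextrose broth and added to test compound in DMSO. Plates were incubated at 24° C, and growth inhibition was read photometrically 4-5 days after application.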

[7] = tested on: Blumeria graminis f. sp. tritici (Erysiphe graminis f. sp. tritici); assay: Blumeria graminis f. sp. tritici / wheat / leaf disc preventative (powdery mildew on wheat); format: in vivo; settings: foliar, wheat leaf segments cv. Kanzler, inoculated 1 day after application, assessed 6-8 days after application, read-out: control of Blumeria graminis f. sp. tritici (percent disease control compared to untreated)
Excerpt: Example B4: Blumeria graminis f. sp. tritici (Erysiphe graminis f. sp. tritici)/Wheat/Leaf Disc Preventative (Powdery Mildew on Wheat) Wheat leaf segments cv. Kanzler are placed on agar in a multiwell plate (24-well format) and sprayed with the formulated test compound diluted in water. The leaf disks are inoculated by shaking powdery mildew infected plants above the test plates 1 day after application. […] […]-192.

[8] = tested on: Phaeosphaeria nodorum (Septoria nodorum); assay: Phaeosphaeria nodorum (Septoria nodorum) / wheat / leaf disc preventative (glume blotch); format: in vivo; settings: Parastagonospora nodorum, foliar, wheat leaf segments cv. Kanzler, inoculated 2 days after application, assessed 5-7 days after application, read-out: control of Phaeosphaeria nodorum (percent disease control compared to untreated)
Procedure: Example B6: Phaeosphaeria nodorum (Septoria nodorum)/Wheat/Leaf Disc Preventative (Glume Blotch) Wheat leaf segments cv. Kanzler are placed on agar in a multiwell plate (24-well format) and sprayed with the formulated test compound diluted in water. The leaf disks are inoculated with a spore suspension of the fungus 2 days after application. The inoculated test leaf disks are incubated at 20° C. and 75% rh under a light regime of 12 h light/12 h darkness in a climate cabinet and the activity of a compound is assessed as percent disease control compared to untreated when an appropriate level of disease damage appears in untreated check leaf disks (5-7 days after application). […] […]-190.

Alternaria solani = Alternaria solani / tomato / leaf disc (early blight); format: in vivo; settings: foliar, tomato leaf disks cv. Baby, inoculated 2 days after application, assessed 5-7 days after application, read-out: control of Alternaria solani (percent disease control compared to untreated)
Procedure: Example B1: Alternaria solani/Tomato/Leaf Disc (Early Blight) Tomato leaf disks cv. Baby are placed on agar in multiwell plates (24-well format) and sprayed with the formulated test compound diluted in water. The leaf disks are inoculated with a spore suspension of the fungus 2 days after application. The inoculated leaf disks are incubated at 23° C./21° C. […] […]-185.

Pyrenophora teres = Pyrenophora teres / barley / leaf disc preventative (net blotch); format: in vivo; settings: foliar, barley leaf segments cv. Hasso, inoculated 2 days after application, assessed 5-7 days after application, read-out: control of Pyrenophora teres (disease control compared to untreated)
Procedure: Example B13: Pyrenophora teres/Barley/Leaf Disc Preventative (Net Blotch) Barley leaf segments cv. Hasso are placed on agar in a multiwell plate (24-well format) and sprayed with the formulated test compound diluted in water. The leaf segments are inoculated with a spore suspension of the fungus 2 days after application. The inoculated leaf segments are incubated at 20° C. and 65% rh under a light regime of 12 h light/12 h darkness in a climate cabinet and the activity of a compound is assessed as disease control compared to untreated when an appropriate level of disease damage appears in untreated check leaf segments (5-7 days after application). […] […]-185.

COc1ccc(Nc2cc(F)cc(F)c2)nc1C(=O)NCC(C)c1ccccc1 (stereo not drawn) [Compound P-23, 6-(3,5-difluoroanilino)-3-methoxy-N-(2-phenylpropyl)pyridine-2-carboxamide]
≥ 80%: inhibition at 20 ppm [1] | inhibition at 20 ppm [2] | inhibition at 20 ppm [3] | pest or weed control at 200 ppm [4] | pest or weed control at 200 ppm [5] | inhibition at 20 ppm [6]

COc1ccc(Nc2cc(F)cc(F)c2)nc1C(=O)NCc1ccccc1 [Compound P-25, N-benzyl-6-(3,5-difluoroanilino)-3-methoxy-pyridine-2-carboxamide]
≥ 80%: inhibition at 20 ppm [1] | pest or weed control at 200 ppm [7] | pest or weed control at 200 ppm [8] | inhibition at 20 ppm [2] | pest or weed control at 200 ppm [4] | pest or weed control at 200 ppm [5] | inhibition at 20 ppm [6]

COc1ccc(Nc2cc(F)cc(F)c2)nc1C(=O)NCCOc1ccc(F)cc1 [Compound P-27, 6-(3,5-difluoroanilino)-N-[2-(4-fluorophenoxy)ethyl]-3-methoxy-pyridine-2-carboxamide]
≥ 80%: inhibition at 20 ppm [1] | pest or weed control at 200 ppm [8] | inhibition at 20 ppm [2] | inhibition at 20 ppm [3] | pest or weed control at 200 ppm [4] | pest or weed control at 200 ppm [5] | inhibition at 20 ppm [6]

CC1(C)CCC1NC(=O)c1nc(Nc2cc(F)cc(F)c2)ccc1OC(F)F (stereo not drawn) [Compound P-46, 6-(3,5-difluoroanilino)-3-(difluoromethoxy)-N-(2,2-dimethylcyclobutyl)pyridine-2-carboxamide]
≥ 80%: inhibition at 20 ppm [1] | pest or weed control at 200 ppm [8] | inhibition at 20 ppm [2] | inhibition at 20 ppm [3] | pest or weed control at 200 ppm [5] | inhibition at 20 ppm [6]

COc1ccc(Nc2cc(F)cc(F)c2)nc1C(=O)NC1CCc2cc(C(F)(F)F)ccc21 (stereo not drawn) [Compound P-55, 6-(3,5-difluoroanilino)-3-methoxy-N-[5-(trifluoromethyl)indan-1-yl]pyridine-2-carboxamide]
≥ 80%: pest or weed control at 200 ppm (Alternaria solani) | inhibition at 20 ppm [1] | pest or weed control at 200 ppm [8] | inhibition at 20 ppm [2] | inhibition at 20 ppm [3] | pest or weed control at 200 ppm [4] | pest or weed control at 200 ppm [5] | inhibition at 20 ppm [6]

COc1ccc(Nc2cc(F)cc(F)c2)nc1C(=O)NC1CCc2ccc(C(F)(F)F)cc21 (stereo not drawn) [Compound P-56, 6-(3,5-difluoroanilino)-3-methoxy-N-[6-(trifluoromethyl)indan-1-yl]pyridine-2-carboxamide]
≥ 80%: pest or weed control at 200 ppm (Alternaria solani) | inhibition at 20 ppm [1] | pest or weed control at 200 ppm [8] | inhibition at 20 ppm [2] | inhibition at 20 ppm [3] | pest or weed control at 200 ppm [4] | inhibition at 20 ppm [6]

COc1ccc(Nc2cnsc2)nc1C(=O)NC1CCc2cc(C(F)(F)F)ccc21 (stereo not drawn) [Compound P-79, 6-(isothiazol-4-ylamino)-3-methoxy-N-[5-(trifluoromethyl)indan-1-yl]pyridine-2-carboxamide]
≥ 80%: inhibition at 20 ppm [1] | inhibition at 20 ppm [2] | inhibition at 20 ppm [3] | pest or weed control at 200 ppm [4] | inhibition at 20 ppm [6]

COc1ccc(Nc2cc(F)nc(F)c2)nc1C(=O)NC(C)CCCC(C)C (stereo not drawn) [Compound P-102, 6-[(2,6-difluoro-4-pyridyl)amino]-N-(1,5-dimethylhexyl)-3-methoxy-pyridine-2-carboxamide]
≥ 80%: inhibition at 20 ppm [1] | inhibition at 20 ppm [2] | inhibition at 20 ppm [3] | pest or weed control at 200 ppm [4] | pest or weed control at 200 ppm [5] | pest or weed control at 200 ppm (Pyrenophora teres) | inhibition at 20 ppm [6]

COc1ccc(Nc2cccc(C#N)c2)nc1C(=O)NC(C)(C)C [Compound P-146, N-tert-butyl-6-(3-cyanoanilino)-3-methoxy-pyridine-2-carboxamide]
≥ 80%: pest or weed control at 200 ppm (Alternaria solani) | inhibition at 20 ppm [1] | pest or weed control at 200 ppm [8] | inhibition at 20 ppm [2] | pest or weed control at 200 ppm [4] | pest or weed control at 200 ppm [5] | inhibition at 20 ppm [6]
